Patent US11136329B2, “JAK inhibitors” (Vimalan Biosciences, Inc., priority 2019, dated 2021)

Experiments:
Type in all cases: biochemical
[1] = target: JAK1 (Homo sapiens (Human), UniProt P23458); assay: JAK/TYK2 assay (Kinase Glo luminescence), JAK1; details: 7.5 nM enzyme, 2 uM ATP, 30 uM IRS-1, 1 hr
Protocol: (§1) 10 mM test compound stock or 1 mM control compound stock (tofocitinib, ruxolitinib or staurosporine) in DMSO was diluted to 0.4 mM in DMSO. A 3-fold series dilution was then performed in DMSO to generate 10 different compound concentrations. The assay was carried out in 384-well white plate. 0.5 uL of 40× compound DMSO solution at different concentrations was mixed with 10 uL 2× enzyme prepared in reaction buffer (20 mM HEPES, 10 mM MgCl2, 0.01% Tween, 1 mM DTT, pH 7.5). 10 uL 2× substrate mixture prepared in reaction buffer was then added to start the reaction. A short spin was done to settle down all solutions to the bottom of the plate. Final concentrations of test compound in the reaction mixture were 10000, 3333, 1111, 370, 123, 41.2, 13.7, 4.57, 1.52and 0.51 nM. Concentrations of control compound were ten times less. Enzymatic reaction was conducted at 25° C. for 1-2 hours. 10 uL of Kinase Glo Reagents was added to stop the reaction and generate the luminescent signal which was measured using Envision. Luminescence signal was inversely related to kinase activity. […] The mixture without any compound was the positive control.

[2] = target: TYK2 (Homo sapiens (Human), UniProt P29597); assay: JAK/TYK2 assay (Kinase Glo luminescence), TYK2; details: 9 nM enzyme, 2 uM ATP, 30 uM IRS-1, 1 hr
Protocol: as §1

[3] = target: JAK3 (Homo sapiens (Human), UniProt P52333); assay: JAK/TYK2 assay (Kinase Glo luminescence), JAK3; details: 1.5 nM enzyme, 2 uM ATP, 4 uM pEY, 1 hr
Protocol: as §1

[4] = target: JAK2 (Homo sapiens (Human), UniProt O60674); assay: JAK/TYK2 assay (Kinase Glo luminescence), JAK2; details: 0.8 nM enzyme, 2 uM ATP, 4 uM pEY, 1 hr
Protocol: as §1

TYK2, sequence (P29597 whole entry, species assumed): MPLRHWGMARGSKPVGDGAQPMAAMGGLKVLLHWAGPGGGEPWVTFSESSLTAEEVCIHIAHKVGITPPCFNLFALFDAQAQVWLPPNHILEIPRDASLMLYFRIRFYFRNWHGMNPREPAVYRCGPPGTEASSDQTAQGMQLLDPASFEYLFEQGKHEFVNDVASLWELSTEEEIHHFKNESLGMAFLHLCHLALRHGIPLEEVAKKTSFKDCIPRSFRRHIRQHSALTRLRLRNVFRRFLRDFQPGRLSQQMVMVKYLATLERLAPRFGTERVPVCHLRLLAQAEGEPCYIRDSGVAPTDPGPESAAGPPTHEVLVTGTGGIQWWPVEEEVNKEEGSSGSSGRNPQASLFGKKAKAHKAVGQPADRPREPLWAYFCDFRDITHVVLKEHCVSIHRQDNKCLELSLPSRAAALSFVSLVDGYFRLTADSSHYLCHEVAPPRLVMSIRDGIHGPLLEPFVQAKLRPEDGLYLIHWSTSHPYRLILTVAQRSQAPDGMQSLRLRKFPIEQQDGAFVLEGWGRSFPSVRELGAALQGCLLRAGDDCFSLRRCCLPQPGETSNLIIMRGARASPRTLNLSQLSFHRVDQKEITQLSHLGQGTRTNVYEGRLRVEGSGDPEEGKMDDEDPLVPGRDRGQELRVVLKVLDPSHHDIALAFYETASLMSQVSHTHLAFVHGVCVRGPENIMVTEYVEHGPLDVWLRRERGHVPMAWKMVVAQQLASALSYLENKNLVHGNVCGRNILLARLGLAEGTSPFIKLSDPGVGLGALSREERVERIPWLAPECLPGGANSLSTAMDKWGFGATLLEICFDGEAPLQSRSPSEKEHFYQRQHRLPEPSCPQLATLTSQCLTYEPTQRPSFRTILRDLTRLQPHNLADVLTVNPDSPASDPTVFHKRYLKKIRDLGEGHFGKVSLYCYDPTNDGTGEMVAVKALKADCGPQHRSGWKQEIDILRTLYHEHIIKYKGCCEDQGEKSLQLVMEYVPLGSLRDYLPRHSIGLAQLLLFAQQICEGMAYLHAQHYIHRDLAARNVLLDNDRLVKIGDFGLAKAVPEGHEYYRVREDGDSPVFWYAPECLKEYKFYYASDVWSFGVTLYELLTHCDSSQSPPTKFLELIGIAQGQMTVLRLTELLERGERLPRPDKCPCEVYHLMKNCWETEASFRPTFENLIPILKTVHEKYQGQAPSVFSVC
JAK3, sequence (P52333 whole entry, species assumed): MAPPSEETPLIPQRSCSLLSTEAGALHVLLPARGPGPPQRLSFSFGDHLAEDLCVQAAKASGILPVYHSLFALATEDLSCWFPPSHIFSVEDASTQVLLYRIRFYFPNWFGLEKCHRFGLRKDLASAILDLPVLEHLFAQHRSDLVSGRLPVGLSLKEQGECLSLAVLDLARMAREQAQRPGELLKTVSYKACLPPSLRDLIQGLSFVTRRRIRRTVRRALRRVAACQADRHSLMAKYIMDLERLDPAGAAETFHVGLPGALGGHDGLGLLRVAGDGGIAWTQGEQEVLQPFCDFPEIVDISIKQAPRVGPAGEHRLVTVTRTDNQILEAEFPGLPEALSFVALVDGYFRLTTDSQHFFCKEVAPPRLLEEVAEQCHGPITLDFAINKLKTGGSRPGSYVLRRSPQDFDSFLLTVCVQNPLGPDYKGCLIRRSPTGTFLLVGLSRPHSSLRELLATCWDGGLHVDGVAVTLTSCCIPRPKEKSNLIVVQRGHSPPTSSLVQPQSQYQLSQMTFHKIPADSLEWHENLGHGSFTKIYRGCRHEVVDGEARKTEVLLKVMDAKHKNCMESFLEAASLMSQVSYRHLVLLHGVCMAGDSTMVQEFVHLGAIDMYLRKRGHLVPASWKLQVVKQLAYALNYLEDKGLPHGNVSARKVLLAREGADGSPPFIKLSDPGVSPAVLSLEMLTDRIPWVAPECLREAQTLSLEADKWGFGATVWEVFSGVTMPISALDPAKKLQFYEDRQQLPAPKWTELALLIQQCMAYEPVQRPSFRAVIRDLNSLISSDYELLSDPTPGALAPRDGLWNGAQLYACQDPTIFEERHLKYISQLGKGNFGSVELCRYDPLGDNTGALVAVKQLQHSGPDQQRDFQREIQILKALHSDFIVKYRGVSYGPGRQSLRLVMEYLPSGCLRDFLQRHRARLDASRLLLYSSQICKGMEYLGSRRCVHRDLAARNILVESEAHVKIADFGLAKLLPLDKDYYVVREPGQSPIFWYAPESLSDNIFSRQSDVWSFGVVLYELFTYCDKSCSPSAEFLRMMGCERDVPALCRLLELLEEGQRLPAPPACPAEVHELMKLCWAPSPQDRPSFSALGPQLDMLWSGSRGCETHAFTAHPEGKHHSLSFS
JAK1, sequence (P23458 whole entry, species assumed): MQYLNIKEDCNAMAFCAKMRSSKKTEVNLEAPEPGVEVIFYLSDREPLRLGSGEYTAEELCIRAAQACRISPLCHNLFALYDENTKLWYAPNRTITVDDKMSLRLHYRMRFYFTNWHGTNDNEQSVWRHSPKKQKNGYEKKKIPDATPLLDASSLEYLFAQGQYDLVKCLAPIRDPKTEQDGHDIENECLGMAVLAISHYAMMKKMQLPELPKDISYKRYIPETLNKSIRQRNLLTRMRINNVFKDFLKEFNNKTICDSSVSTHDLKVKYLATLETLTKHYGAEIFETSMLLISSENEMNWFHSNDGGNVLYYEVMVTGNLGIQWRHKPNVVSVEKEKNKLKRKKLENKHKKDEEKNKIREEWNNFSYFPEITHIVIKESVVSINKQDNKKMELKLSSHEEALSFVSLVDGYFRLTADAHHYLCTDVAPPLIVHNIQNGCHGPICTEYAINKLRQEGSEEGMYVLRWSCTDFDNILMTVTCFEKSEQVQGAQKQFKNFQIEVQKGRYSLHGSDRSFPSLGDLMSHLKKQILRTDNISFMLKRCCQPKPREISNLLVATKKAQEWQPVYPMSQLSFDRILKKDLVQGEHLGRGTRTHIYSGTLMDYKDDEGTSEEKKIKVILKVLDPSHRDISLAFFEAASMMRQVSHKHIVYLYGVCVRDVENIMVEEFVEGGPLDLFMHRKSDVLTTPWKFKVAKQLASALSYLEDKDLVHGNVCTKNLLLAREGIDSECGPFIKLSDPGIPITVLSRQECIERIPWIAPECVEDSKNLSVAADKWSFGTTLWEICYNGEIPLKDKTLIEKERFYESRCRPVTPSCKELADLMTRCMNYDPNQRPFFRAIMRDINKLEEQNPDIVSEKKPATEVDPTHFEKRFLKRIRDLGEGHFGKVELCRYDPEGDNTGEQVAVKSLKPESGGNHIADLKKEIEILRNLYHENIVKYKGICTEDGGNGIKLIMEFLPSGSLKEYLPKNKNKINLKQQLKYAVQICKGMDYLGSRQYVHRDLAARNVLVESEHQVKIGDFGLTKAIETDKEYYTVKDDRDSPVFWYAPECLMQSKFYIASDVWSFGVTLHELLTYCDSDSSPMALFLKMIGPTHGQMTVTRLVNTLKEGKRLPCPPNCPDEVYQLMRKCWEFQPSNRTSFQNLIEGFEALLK
JAK2, sequence (O60674 whole entry, species assumed): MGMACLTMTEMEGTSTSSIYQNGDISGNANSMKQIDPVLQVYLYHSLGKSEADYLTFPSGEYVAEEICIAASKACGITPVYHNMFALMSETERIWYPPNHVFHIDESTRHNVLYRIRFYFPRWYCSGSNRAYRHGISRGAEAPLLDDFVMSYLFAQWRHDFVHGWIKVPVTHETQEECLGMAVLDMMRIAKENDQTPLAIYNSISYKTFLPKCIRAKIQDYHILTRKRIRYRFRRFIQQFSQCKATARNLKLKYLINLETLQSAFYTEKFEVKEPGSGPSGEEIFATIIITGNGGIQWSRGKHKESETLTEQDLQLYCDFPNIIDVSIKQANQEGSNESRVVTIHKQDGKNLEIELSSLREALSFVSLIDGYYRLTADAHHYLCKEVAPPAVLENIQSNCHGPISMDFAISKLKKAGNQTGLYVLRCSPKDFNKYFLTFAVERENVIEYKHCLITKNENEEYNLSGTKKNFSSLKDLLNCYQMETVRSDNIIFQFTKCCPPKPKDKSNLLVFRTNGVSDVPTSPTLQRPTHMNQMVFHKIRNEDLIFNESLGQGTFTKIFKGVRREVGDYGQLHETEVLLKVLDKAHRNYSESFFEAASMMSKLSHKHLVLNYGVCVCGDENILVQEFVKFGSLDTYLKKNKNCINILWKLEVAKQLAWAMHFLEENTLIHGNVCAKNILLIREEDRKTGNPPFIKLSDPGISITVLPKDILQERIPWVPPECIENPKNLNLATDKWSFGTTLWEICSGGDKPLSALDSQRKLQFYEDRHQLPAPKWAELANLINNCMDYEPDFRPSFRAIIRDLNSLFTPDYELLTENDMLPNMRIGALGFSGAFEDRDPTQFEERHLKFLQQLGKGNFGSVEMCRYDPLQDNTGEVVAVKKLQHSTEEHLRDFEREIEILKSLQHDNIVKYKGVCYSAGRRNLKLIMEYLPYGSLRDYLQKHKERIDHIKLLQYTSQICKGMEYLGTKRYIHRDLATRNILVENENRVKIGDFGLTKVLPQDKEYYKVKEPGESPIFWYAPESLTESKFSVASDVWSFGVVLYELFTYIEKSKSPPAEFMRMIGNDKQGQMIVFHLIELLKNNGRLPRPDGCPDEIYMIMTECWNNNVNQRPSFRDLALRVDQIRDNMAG

Row | SMILES | IC50 [1] | IC50 [2] | IC50 [3] | IC50 [4]
1 | CC[C@H](Cn1ccc2cnc(Nc3cnn(CC(=O)OCC4COC4)c3)nc21)C(C)C [Compound 141, oxetan-3-ylmethyl (S)-2-(4-((7-(2-ethyl-3-methylbutyl)-7H-pyrrolo[2,3-d]pyrimidin-2-yl)amino)-1H-pyrazol-1-yl)acetate] | < 100 nM | < 100 nM | < 100 nM | < 100 nM
2 | CCC(Cn1ccc2cnc(Nc3cnn(CC(=O)OC[C@@H](C)O)c3)nc21)C(C)C (stereo partly drawn) [Compound 110, (R)-2-hydroxypropyl 2-(4-((7-(2-ethyl-3-methylbutyl)-7H-pyrrolo[2,3-d]pyrimidin-2-yl)amino)-1H-pyrazol-1-yl)acetate] | < 100 nM | < 100 nM | < 100 nM | < 100 nM
3 | CCOC(=O)c1ccc(Nc2ncc3ccn(CC(CC)CC)c3n2)cc1 [Compound 26, ethyl 4-((7-(2-ethylbutyl)-7H-pyrrolo[2,3-d]pyrimidin-2-yl)amino)benzoate] | 100 to 1000 nM | 100 to 1000 nM | 100 to 1000 nM | 100 to 1000 nM
4 | O=C(O)CCn1cc(Nc2ncc3ccn(Cc4ccsc4)c3n2)cn1 [Compound 19, 3-(4-((7-(thiophen-3-ylmethyl)-7H-pyrrolo[2,3-d]pyrimidin-2-yl)amino)-1H-pyrazol-1-yl)propanoic acid] | < 100 nM | < 100 nM | < 100 nM | < 100 nM
5 | CCCCOC(=O)Cn1cc(Nc2ncc3ccn(CC(CC)C(C)C)c3n2)cn1 (stereo not shown) [Compound 84, butyl 2-(4-((7-(2-ethyl-3-methylbutyl)-7H-pyrrolo[2,3-d]pyrimidin-2-yl)amino)-1H-pyrazol-1-yl)acetate] | < 100 nM | < 100 nM | < 100 nM | < 100 nM
6 | CCC(Cn1ccc2cnc(Nc3cnn(CC(=O)OC(C)C)c3)nc21)CC(F)(F)F (stereo not shown) [Compound 101, isopropyl 2-(4-((7-(2-ethyl-4,4,4-trifluorobutyl)-7H-pyrrolo[2,3-d]pyrimidin-2-yl)amino)-1H-pyrazol-1-yl)acetate] | < 100 nM | < 100 nM | < 100 nM | < 100 nM
7 | CCOC(=O)c1ccc(Nc2ncc3ccn(Cc4ccsc4)c3n2)cc1 [Compound 12, ethyl 4-((7-(thiophen-3-ylmethyl)-7H-pyrrolo[2,3-d]pyrimidin-2-yl)amino)benzoate] |  |  | 100 to 1000 nM | 
8 | CCOC(=O)Cn1cc(Nc2ncc3ccn(CC4CCC4)c3n2)cn1 [Compound 14, ethyl 2-(4-((7-(cyclobutylmethyl)-7H-pyrrolo[2,3-d]pyrimidin-2-yl)amino)-1H-pyrazol-1-yl)acetate] |  |  | < 100 nM | 
9 | CCOC(=O)Cn1cc(Nc2ncc3ccn(C[C@H]4CC[C@H](NC)CC4)c3n2)cn1 [Compound 123] | 100 to 1000 nM | < 100 nM |  | < 100 nM
10 | CCOC(=O)Cn1cc(Nc2ncc3ccn(CC4CCSCC4)c3n2)cn1 [Compound 126, ethyl 2-(4-((7-((tetrahydro-2H-thiopyran-4-yl)methyl)-7H-pyrrolo[2,3-d]pyrimidin-2-yl)amino)-1H-pyrazol-1-yl)acetate] | 100 to 1000 nM | < 100 nM |  | < 100 nM
11 | CCOC(=O)Cn1ccc2cnc(Nc3cnn(C)c3)nc21 [Compound 57, ethyl 2-(2-((1-methyl-1H-pyrazol-4-yl)amino)-7H-pyrrolo[2,3-d]pyrimidin-7-yl)acetate] | 1000 to 10000 nM |  | 1000 to 10000 nM | 100 to 1000 nM
12 | CCOC(=O)Cn1cc(Nc2ncc3ccn(CC4CC4)c3n2)cn1 [Compound 25, ethyl 2-(4-((7-(cyclopropylmethyl)-7H-pyrrolo[2,3-d]pyrimidin-2-yl)amino)-1H-pyrazol-1-yl)acetate] |  |  | < 100 nM | 
13 | CCOC(=O)c1ccc(Cn2ccc3cnc(Nc4cnn(C)c4)nc32)s1 [Compound 58, ethyl 5-((2-((1-methyl-1H-pyrazol-4-yl)amino)-7H-pyrrolo[2,3-d]pyrimidin-7-yl)methyl)thiophene-2-carboxylate] |  |  | 1000 to 10000 nM | 

More lines, now with the values ahead:

Row | IC50 [1] | IC50 [2] | IC50 [3] | IC50 [4] | SMILES
14 | < 100 nM | < 100 nM | < 100 nM | < 100 nM | CN1CC[C@@H](OC(=O)Cn2cc(Nc3ncc4ccn(C[C@H]5CC[C@H](O)CC5)c4n3)cn2)C1 [Compound 146, (R)-1-methylpyrrolidin-3-yl 2-(4-((7-(((1r,4r)-4-hydroxycyclohexyl)methyl)-7H-pyrrolo[2,3-d]pyrimidin-2-yl)amino)-1H-pyrazol-1-yl)acetate]
15 | < 100 nM | < 100 nM | < 100 nM | < 100 nM | CCOC(=O)Cn1cc(Nc2ncc3ccn(CC(CC)CC)c3n2)cn1 [Compound 8, ethyl 2-(4-((7-(2-ethylbutyl)-7H-pyrrolo[2,3-d]pyrimidin-2-yl)amino)-1H-pyrazol-1-yl)acetate]
16 | < 100 nM | < 100 nM | < 100 nM | < 100 nM | O=C(O)Cn1cc(Nc2ncc3ccn(CC4CCCCC4)c3n2)cn1 [Compound 15, 2-(4-((7-(cyclohexylmethyl)-7H-pyrrolo[2,3-d]pyrimidin-2-yl)amino)-1H-pyrazol-1-yl)acetic acid]
17 | < 100 nM | < 100 nM | < 100 nM | < 100 nM | CCOC(=O)C(C)(C)n1cc(Nc2ncc3ccn(CC(CC)CC)c3n2)cn1 [Compound 27, ethyl 2-(4-((7-(2-ethylbutyl)-7H-pyrrolo[2,3-d]pyrimidin-2-yl)amino)-1H-pyrazol-1-yl)-2-methylpropanoate]
18 | < 100 nM | < 100 nM | < 100 nM | < 100 nM | CC[C@H](Cn1ccc2cnc(Nc3cnn(CCC(=O)O)c3)nc21)C(C)C [Compound 115, (S)-3-(4-((7-(2-ethyl-3-methylbutyl)-7H-pyrrolo[2,3-d]pyrimidin-2-yl)amino)-1H-pyrazol-1-yl)propanoic acid]
19 | < 100 nM | < 100 nM | < 100 nM | < 100 nM | O=C(O)CCn1cc(Nc2ncc3ccn(C[C@H]4CC[C@H](O)CC4)c3n2)cn1 [Compound 117, 3-(4-((7-(((1r,4r)-4-hydroxycyclohexyl)methyl)-7H-pyrrolo[2,3-d]pyrimidin-2-yl)amino)-1H-pyrazol-1-yl)propanoic acid]
20 | < 100 nM | < 100 nM | < 100 nM | < 100 nM | CC[C@H](Cn1ccc2cnc(Nc3cnn([C@@H]4CCOC4=O)c3)nc21)C(C)C [Compound 82A, (R)-3-(4-((7-((S)-2-ethyl-3-methylbutyl)-7H-pyrrolo[2,3-d]pyrimidin-2-yl)amino)-1H-pyrazol-1-yl)dihydrofuran-2(3H)-one]
21 | 1000 to 10000 nM |  | 1000 to 10000 nM | 1000 to 10000 nM | CCOC(=O)c1nc(Cn2ccc3cnc(Nc4cnn(C)c4)nc32)cs1 [Compound 56]
22 | 100 to 1000 nM | < 100 nM | < 100 nM | < 100 nM | CCOC(=O)Cn1cc(Nc2ncc3ccn(CC4CCCCCC4)c3n2)cn1 [Compound 43, ethyl 2-(4-((7-(cycloheptylmethyl)-7H-pyrrolo[2,3-d]pyrimidin-2-yl)amino)-1H-pyrazol-1-yl)acetate]
23 | < 100 nM | < 100 nM | < 100 nM | < 100 nM | CCOC(=O)Cn1cc(Nc2ncc3ccn(CC4(C)CCCC4)c3n2)cn1 [Compound 41, ethyl 2-(4-((7-((1-methylcyclopentyl)methyl)-7H-pyrrolo[2,3-d]pyrimidin-2-yl)amino)-1H-pyrazol-1-yl)acetate]
24 | < 100 nM | < 100 nM | < 100 nM | < 100 nM | CC(C(=O)O)n1cc(Nc2ncc3ccn(C[C@H]4CC[C@H](O)CC4)c3n2)cn1 (stereo partly shown) [Compound 116, 2-(4-((7-(((1r,4r)-4-hydroxycyclohexyl)methyl)-7H-pyrrolo[2,3-d]pyrimidin-2-yl)amino)-1H-pyrazol-1-yl)propanoic acid]
25 | < 100 nM | < 100 nM | < 100 nM | < 100 nM | O=C(O)Cn1cc(Nc2ncc3ccn(CC4CCCCC4(F)F)c3n2)cn1 (stereo not shown) [Compound 37, 2-(4-((7-((2,2-difluorocyclohexyl)methyl)-7H-pyrrolo[2,3-d]pyrimidin-2-yl)amino)-1H-pyrazol-1-yl)acetic acid]
26 | 100 to 1000 nM |  | 100 to 1000 nM | 100 to 1000 nM | C=CC(=O)Nc1cccc(Cn2ccc3cnc(Nc4cnn(CC(=O)OCC)c4)nc32)c1 [Compound 95, ethyl 2-(4-((7-(3-acrylamidobenzyl)-7H-pyrrolo[2,3-d]pyrimidin-2-yl)amino)-1H-pyrazol-1-yl)acetate]
27 | 1000 to 10000 nM | 100 to 1000 nM |  | 1000 to 10000 nM | CCOC(=O)Cn1cc(Nc2ncc3ccn(CC4CCS(=O)(=O)CC4)c3n2)cn1 [Compound 125, ethyl 2-(4-((7-((1,1-dioxidotetrahydro-2H-thiopyran-4-yl)methyl)-7H-pyrrolo[2,3-d]pyrimidin-2-yl)amino)-1H-pyrazol-1-yl)acetate]
28 |  |  | < 100 nM |  | CCOC(=O)Cn1cc(Nc2ncc3c(Cl)cn(CC4CCCCC4)c3n2)cn1 [Compound 60, ethyl 2-(4-((5-chloro-7-(cyclohexylmethyl)-7H-pyrrolo[2,3-d]pyrimidin-2-yl)amino)-1H-pyrazol-1-yl)acetate]
